# Test results published in patent US8389027B2 (priority 2008, dated 2013).
# Legend:
# Zebra fish larvae heart = type: in vivo, Danio rerio; conditions: at 26 (h of treatment); control 12.71
# [1] = test system: wild-type M. grisea Guy11 on rice leaf sheath or onion epidermis; type: in vivo, Magnaporthe grisea; conditions: summary statement
# wild-type S. pombe [2] = assay: Estimation of minimum inhibitory concentration for S. pombe; type: cell-based, Schizosaccharomyces pombe; conditions: different concentrations, 6 h incubation
# Experimental: Approximately, 1×10^7 cells/ml from overnight grown culture of MBY 104 was inoculated in 20 ml fresh YES medium in 250 ml flasks. The cells were incubated at 25° C. on a shaker in absence or presence of different concentrations of digoxin. A stock of 1 mM standard glycosides (Sigma Aldrich, USA) was prepared by adding 7.8 mg, 3.9 mg, and 7.28 mg of digoxin, digoxigenin, and ouabain, respectively, in 10 ml of 50% ethanol. A working stock of 200 μM solution was prepared by diluting 1 mM stock with fresh YES medium. Further dilutions were made from this working stock by adjusting total volume with YES to 20 ml. Cell density of untreated or treated wild-type yeast cells was checked in terms of absorbance after every one hour over 5 to 6 generations. Experiments were performed in duplicate each time and confirmed by several biological replicates.
# Wild-type S. pombe cells were grown in absence or presence of different concentrations of digoxin, digoxigenin, or ouabain and growth kinetics was studied over 6-8 h.
# wild-type S. pombe [3] = type: cell-based, Schizosaccharomyces pombe
# [4] = test system: S. pombe strain expressing M. grisea Abc3 (MBY 2838); type: cell-based, Schizosaccharomyces pombe; conditions: MBY 2838, compound in growth medium
# [5] = test system: Magnaporthe Guy11 on detached barley leaf; type: in vivo, Magnaporthe grisea; conditions: 200 μM
# [6] = test system: rice or barley leaf tissue; type: in vivo
smiles,measurement,setting,value
C[C@H]1O[C@@H](O[C@H]2[C@@H](O)C[C@H](O[C@H]3[C@@H](O)C[C@H](O[C@H]4CC[C@@]5(C)[C@H](CC[C@@H]6[C@@H]5C[C@@H](O)[C@]5(C)[C@@H](C7=CC(=O)OC7)CC[C@]65O)C4)O[C@@H]3C)O[C@@H]2C)C[C@H](O)[C@@H]1O [digoxin],heart rate (time taken for 20 beats),Zebra fish larvae heart,13.79 s
same,appressorial function of host penetration,[1],blocked appressorial function of host penetration
same,absorbance of treated S. pombe cells,wild-type S. pombe [2],decrease in absorbance in a dose dependent manner
same,"cell density (OD600 nm) of S. pombe, growth kinetics",wild-type S. pombe [3],inhibitory effects
same,effect on S. pombe cells expressing M. grisea Abc3p,[4],did not show any effects
same,disease symptoms on detached barley leaf,[5]; controls symptomatic from day 3,failed to elicit any disease symptoms
same,"disease symptoms, leaves inoculated with 100 conidia per droplet","[5]; 6 dpi, 100 conidia per droplet",did not show any symptoms
same,severity of disease compared to control leaves,[5]; day 6 post inoculation,significantly reduced
same,elicitor-like response in the host plants,[6]; exogenous application to leaf tissue,induced hypersensitive reaction
same,"H2O2 level as Cerium perhydroxide precipitate (CeCl3 staining, TEM)","[6]; treated leaf tissue, 48 h",accumulation of Cerium perhydroxide precipitate in the cell wall and cell membrane
same,state of host cells upon treatment,"[6]; treated leaf tissue, TEM",plasmolysis
